Data on one compound can be found in patent US20250332143A1, “COMPOSITION COMPRISING ALOX5 INHIBITOR FOR PREVENTING OR TREATING SARCOPENIA” (PLUTO Inc., priority 2022, published 2025).

Entries after “also recorded” stand apart in the source; their conditions may differ.

One assay relates to Atrogin-1 and MuRF-1. Description: qPCR of muscle atrophy regulators in Dex-treated C2C12 myotubes. Type of assay: cell-based, mouse. How it is done: (§1) C2C12 murine skeletal muscle myoblasts were obtained from Koram Biotech (Republic of Korea). The cells were maintained in DMEM growth medium supplemented with 10% FBS, 1% penicillin, and streptomycin. When myoblasts proliferated to approximately 90%, they were differentiated into muscle fibers by treating them with DMEM differentiation medium supplemented with 2% HS, 1% penicillin, and streptomycin for 96 hours. Differentiated muscle fibers were treated with 10 μM Dex for 24 hours to induce sarcopenia. To evaluate the degree of differentiation of muscle cells, differentiating myoblasts were treated with the corresponding compound in differentiation medium for 24 or 48 hours.
(§2) For quantitative real-time PCR, transcript levels of genes of interest were analyzed using the StepOnePlus real-time PCR system (Applied Biosystems, UK). Total RNA was reverse transcribed to prepare cDNA using AccuPower® RT PreMix (Bioneer Corporation). The obtained cDNA was subjected to real-time PCR according to the manufacturer's instructions with the following changes. PCR was performed in triplicate in a total volume of 20 μL 2× Power SYBR Green PCR Master Mix (Enzynomics, Republic of Korea) containing 200 nM (final concentration) of each specific primer and 1 μL of cDNA synthesized from 1 μg of total RNA. PCR amplification consisted of incubating the mixture at 95° C. for 10 minutes, followed by 40 cycles of denaturation, annealing, and extension. Denaturation was performed at 95° C. for 15 s, annealing was performed at 60° C. for 1 min, and extension was performed at 72° C. for 20 s with fluorescence detection at 72° C. after each cycle. After the final cycle, melting point analysis of all samples was performed within the range of 60 to 95° C. using continuous fluorescence detection. Specific cDNA samples were included in each run and used as reference material for comparison between runs. The expression level of GAPDH was used to calculate and normalize the expression levels of all other genes. Results were expressed as relative expression levels for each gene. The synthesized cDNA was amplified by quantitative real-time PCR (qRT-PCR) or standard PCR.
A general note: Quantitative PCR measures a nucleic acid by following its amplification.

The test system of another assay is LC3b, p62. Description: Western blot of autophagy markers LC3b I, LC3b II and p62 in Dex-treated myotubes. The class given is cell-based, mouse. How it is done: C2C12 murine skeletal muscle myoblasts were obtained from Koram Biotech (Republic of Korea). The cells were maintained in DMEM growth medium supplemented with 10% FBS, 1% penicillin, and streptomycin. When myoblasts proliferated to approximately 90%, they were differentiated into muscle fibers by treating them with DMEM differentiation medium supplemented with 2% HS, 1% penicillin, and streptomycin for 96 hours. Differentiated muscle fibers were treated with 10 μM Dex for 24 hours to induce sarcopenia. To evaluate the degree of differentiation of muscle cells, differentiating myoblasts were treated with the corresponding compound in differentiation medium for 24 or 48 hours. The concentration of intracellular protein was measured using the Bradford assay (Bio-Rad, USA, CA), and electrophoresis was performed by loading on 10% and 12% polyacrylamide gels. Afterwards, the separated proteins were transferred to a PVDF membrane, and the primary antibody used was diluted 1:1000 in TBS-T containing 5% skim milk and incubated overnight at 4° C. Secondary antibodies were diluted 1:2000 and incubated for 35 minutes at room temperature (RT). Band intensity was measured using ImageJ 1.52 software (National Institutes of Health, USA), and intracellular protein was normalized to α-tubulin.

The test system of another assay is Alox5. Description: Alox5 expression in Dex-treated myotubes (qPCR, Western blot). As to conditions: qPCR and Western blotting. Type of assay: cell-based, mouse. How it is done:
as §1
The concentration of intracellular protein was measured using the Bradford assay (Bio-Rad, USA, CA), and electrophoresis was performed by loading on 10% and 12% polyacrylamide gels. […] Band intensity was measured using ImageJ 1.52 software (National Institutes of Health, USA), and intracellular protein was normalized to α-tubulin.
For quantitative real-time PCR, transcript levels of genes of interest were analyzed using the StepOnePlus real-time PCR system (Applied Biosystems, UK). […] Denaturation was performed at 95° C. for 15 s, annealing was performed at 60° C. for 1 min, and extension was performed at 72° C. for 20 s with fluorescence detection at 72° C. after each cycle. […]

Assay [1] has as its system Dex-treated C57BL/6J mice. Nature of the assay: Dexamethasone-induced sarcopenia mouse model. Type of assay: in vivo. Here is the method: as §2
An LTB4 ELISA kit was purchased from MyBioSource (CA, USA). The concentrations of LTB4 in skeletal muscles and cell lysates were measured by the enzyme-linked […] method according to the manufacturer's instructions. Samples (100 μL) were maintained at room temperature (RT) for 1 hour in 96 wells with polyclonal LTB4 antibody. Afterwards, an enzymatic reaction was performed to stop the process, and the absorbance was measured at 405 nm.
8. Dexamethasone-Induced Sarcopenia Mouse Model 12-week-old male C57BL/6J mice were divided into 3 groups of 5 each and treated with drugs as follows: 1) PBS with 5% DMSO and 5% Tween 80 (Vehicle group); 2) 15 mg/kg of Dexamethasone (at a concentration of 15 mg/kg, in PBS containing 5% DMSO and 5% Tween 80) (Dexamethasone group); and 3) 10 mg/kg of malotilate (at a concentration of 10 mg/kg, in PBS containing 15 mg/kg Dexamethasone, 5% DMSO, and 5% Tween 80) (Malotilate group). Those were injected intraperitoneally (solution volume=200 μL) for 2 weeks. Afterwards, the muscle function and conditions of the mice were analyzed.
Grip strength was measured with the BIO-GS3 grip strength test meter (Bioseb, FL, USA). Grip strength was measured by placing the mouse on a grid and gently pulling it back with all four paws until the mouse fell off the grid. The trials were conducted with a time interval of 30 seconds, and the largest value among the three trials was selected as the representative muscle strength.
Muscle fatigue was measured from two different models using Rotarod (Ugo Basile, Italy). One is a constant speed model that measures how long movement can be continued on a cylinder rotating at a constant speed, and the other model is an acceleration model that measures how fast the mouse can continue movement when the speed of the cylinder increases at regular intervals. Mice were trained to adapt from 5 rpm to 15 rpm one day before measurement in the above two models.
Before sacrifice, mice were anesthetized by intraperitoneally administering 22 mg/kg Ketamine (Yuhan, Republic of Korea) and 10 mg/kg xylazine (Bayer, Republic of Korea) by IP injection, and then samples were collected. Quadriceps, gastrocnemius, tibialis anterior and soleus muscles were sampled and their weights were measured. The muscles sampled for immunohistostaining were cultured overnight at 4° C. with 4% paraformaldehyde, fixed, embedded in paraffin solution, and stored at −80° C. […]

[2] abbreviates: Dex-treated mice, 10 mg/kg intraperitoneally, 2 weeks.
Setting [3] is: Dex-treated mice, quadriceps, mRNA.

For `CC(C)OC(=O)C(C(=O)OC(C)C)=C1SC=CS1` [malotilate, Malotilate], in the assay on Atrogin-1 and MuRF-1, the “Atrogin-1 expression (mRNA, qPCR)” value was “inhibited the upregulation; also recorded: decreased” and the “MuRF-1 expression (mRNA, qPCR)” value was “inhibited the upregulation; also recorded: decreased”. In the assay with LC3b, p62, the autophagy entry is on record as “reduced”, the “expression of p62” value is recorded as “increases” and the “ratio of LC3bII to LC3bI” value was “decreases”. The Alox5 expression entry in the assay with Alox5 is “did not affect”. Also, in assay [1] (setting [2]), the grip strength entry is listed as “significantly increased”; the “latency to fall, rotarod” value was “significantly increased”; the “maximum velocity, rotarod” value is “significantly increased”; the quadriceps muscle mass result is on record as “increased”. In addition, the soleus muscle mass result in assay [1] (setting [2]) is “increased”. In assay [1] (Dex-treated mice, quadriceps), the “LTB4 level in muscle (ELISA)” value is reported as “lowered”, the “average muscle fiber cross sectional area (CSA)” value is on record as “increased” and the “proportion of fibers with larger CSA” value was “increased”. For the same compound, in assay [1] (setting [3]), the “MuRF-1 expression in muscle” value was “reduced” and the “atrogin-1 expression in muscle” value was “reduced”. The skeletal muscle atrophy result in assay [1] (animal model of sarcopenia due to Dex treatment) is given as “inhibited”.
